{"source": "patent US20070213226A1", "about": "“AGROCHEMICAL COMPOSITIONS COMPRISING ALKYLENEDIOL-MODIFIED POLYSILOXANES” (priority 2006, published 2007)", "key": {"[1]": {"test_system": "Poa pratensis (meadowgrass or Kentucky blue grass)", "assay": "Greenhouse trial, sulfonylurea herbicides for grass weed control", "assay_type": "in vivo", "conditions": "mean of 3 replicates ± SD", "protocol": "Greenhouse trials were carried out where the effect of ADS-1 on the efficacy of the sulfonylurea herbicides nicosulfuron (4.2% SC Motivell from BASF) and rimsulfuron (25% WG Cato from Dupont) for grass weed control was tested. Seed of the grass Poa pratensis (meadowgrass or Kentucky blue grass) was densely sown in pots and grown for 6 weeks until reaching a height of about 25 cm. The herbicides were tank mixed with the adjuvant ADS-1 at doses given also in the table. […] Researchers trained in the art have knowledge about such technology, and about the method of assessment."}, "[2]": {"test_system": "Senna tora (sickle senna)", "assay": "Field trial, herbicide control of Senna tora, with and without simulated rain", "assay_type": "in vivo", "conditions": "30 days after treatment, 720 g ae/ha", "description": "Statistical calculations were done on the means."}}}
{"smiles": "COc1cc(OC)nc(NC(=O)NS(=O)(=O)c2ncccc2C(=O)N(C)C)n1", "note": "[Nicosulfuron, nicosulfuron]", "values": [{"measurement": "% Control", "setting": "[1]; Table 9, dose/ha 25 ml Motivell", "result": "87 ± 3", "unit": "%"}]}
{"smiles": "CCS(=O)(=O)c1cccnc1S(=O)(=O)NC(=O)Nc1nc(OC)cc(OC)n1", "note": "[Rimsulfuron, rimsulfuron]", "values": [{"measurement": "% Control", "setting": "[1]; Table 10, dose/ha 10 g Cato", "result": "43 ± 6", "unit": "%"}]}
{"smiles": "O=C(O)CNCP(=O)(O)O", "note": "[Glyphosate, glyphosate]", "values": [{"measurement": "Control (%) of Senna tora", "setting": "[2]; with 4 mm rain aftertreatment", "result": 75.0, "unit": "d %"}, {"measurement": "Control (%) of Senna tora", "setting": "[2]; without rain aftertreatment", "result": 96.0, "unit": "a %"}]}
